Measured values from publication PMC13267044, “Ten previously undescribed norsesquiterpenoids from the fungus Marasmiellus candidus and their anti-inflammatory activities” (Mycology, 2025).

Key:
[1] = tested on: RAW264.7 macrophages; test: Cell viability assay (CCK-8) in RAW264.7 macrophages; format: cell-based; details: RAW 264.7 cells, 24 h, tested at 20, 40, 80 μmol/L
Experimental: RAW264.7 macrophages were seeded in 96-well plates (5 × 10^4 cells/well) and cultured at 37 °C with 5% CO₂ for 24 h. After adhesion, test samples (20, 40, 80 μmol/L) or medium (blank) were added and incubated for 24 h. Subsequently, 10 μL of CCK-8 solution was added, and after 2 h of incubation, the absorbance was measured at 450 nm.
Cell viability (%) = (ODsample/ODblank) × 100%

[2] = tested on: RAW 264.7 cells; test: NO production inhibition in LPS-induced RAW 264.7 cells (Griess reagent method); format: cell-based; details: LPS-induced (10 μg/mL) RAW 264.7 cells, 24 h, mean ± standard deviation (n = 3)
Experimental: RAW 264.7 cells were cultured as above, then divided into blank control, LPS-induced (10 μg/mL, model), and sample-treated groups. After 24 h, supernatants were centrifuged (12,000 r/min, 5 min) and collected. NO production was assessed using the standard Griess reagent method (Fan et al. [2023]).
Inhibition rate (%) = [(NOmodel – NOsample)/(NOmodel – NOblank)] × 100%.

SMILES	Cytotoxicity [1] [µmol/L]	IC50 ([2]; Mus musculus, RAW264.7) [µM]	IC50 [2] [µM]
CC1(C)OC(=O)c2c1ccc1c2COC1=O [Compound 1, Marasmiellactone R]	> 80	18.2 ± 1.9	
C[C@@H]1OC(=O)c2c1ccc1c2COC1=O [Compound 4, 10-normarasmiellactone R]	> 80	15.5 ± 1.4	
CC(C)(CC(=O)O)c1ccc(C(=O)O)c2c1C(=O)OC2 [Compound 6, Marasmielolic acid B]	> 80	65.4 ± 4.6	
COC(=O)C(C)(C)c1ccc(C(=O)O)c2c1C(=O)OC2O (racemic) [Compound 8, (±)-Marasmielolic acid D]	> 80	50.8 ± 3.4	
CC(C)(CC(=O)O)c1ccc(C(=O)O)c2c1C(=O)NC2=O [Compound 5, Marasmielolic acid A]	> 80	53.5 ± 3.9	
N=C(N)NN [Aminoguanidine, aminoguanidine, reference compound]	> 80		12.5 ± 1.8
CC(=O)OC[C@@]1(C)OC(=O)c2c1ccc1c2COC1=O [Compound 3, 10-O-acetylmarasmiellactone S]	> 80	22.1 ± 2.6	
CC(C)(C(=O)O)c1ccc(C(=O)O)c2c1C(=O)OC2 [Compound 7, normarasmielolic acid B]	> 80	69.2 ± 3.1	
COC(=O)c1c(C(=O)O)ccc2c1C(=O)OC2(C)C [Compound 9, Marasmielolic acid E]	> 80	> 100	
C[C@]1(CO)OC(=O)c2c1ccc1c2COC1=O [Compound 2, Marasmiellactone S]	> 80	16.7 ± 1.6	
COC(=O)c1c(C(=O)O)ccc2c1C(=O)C(O)=CC2(C)C [Compound 10, Marasmielolic acid F]	> 80	> 100	
